#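 Growth conditions: 96-well plates. Treatment: test compound, 48 hours, 5 concentrations. Analysis: linear interpolation between bracketing concentrations; unreached endpoints set to highest concentration. TGI marks complete inhibition of growth.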
# Experiments:
# Experiment in all cases: inhibition of tumour cell growth, NCI panel, 48 h
# [1] = test system: UACC-62 melanoma
# [2] = test system: DMS 273 small cell lung
# [3] = test system: NCI-H226 lung
# [4] = test system: M19-MEL melanoma
# [5] = test system: HCT-15 colon
# [6] = test system: OVCAR-3 ovarian
# [7] = test system: RXF-631 renal
# [8] = test system: HL-60(TB) leukemia
# [9] = test system: U251 CNS
# [10] = test system: SK-MEL-5 melanoma
# [11] = test system: TK-10 renal
# [12] = test system: HOP-62 NSCLC
# [13] = test system: HCT-116 colon
# [14] = test system: A498 renal
# [15] = test system: RXF 393 renal
# [16] = test system: LXFL 529 NSCLC
# [17] = test system: SK-MEL-28 melanoma
# [18] = test system: SW-620 colon
# [19] = test system: EKVX NSCLC
# [20] = test system: UO-31 renal
# [21] = test system: SNB-75 CNS
# [22] = test system: RPMI-8226 leukemia
# [23] = test system: SF-295 CNS
# [24] = test system: NCI-H23 lung
# [25] = test system: UACC-257 melanoma
# [26] = test system: ACHN renal
# [27] = test system: SF-539 CNS
# [28] = test system: SK-OV-3 ovarian
# [29] = test system: K-562 leukemia
# [30] = test system: XF 498 CNS
# [31] = test system: SK-MEL-2 melanoma
# [32] = test system: 786-0 renal
# [33] = test system: MOLT-4 leukemia
# [34] = test system: MALME-3M melanoma
# [35] = test system: M14 melanoma
# [36] = test system: HCC-2998 colon
# [37] = test system: OVCAR-8 ovarian
# [38] = test system: NCI-H460 lung
# [39] = test system: KM12 colon
# [40] = test system: SNB-78 CNS
# [41] = test system: OVCAR-5 ovarian
# [42] = test system: A549 NSCLC
# [43] = test system: DLD-1 colon
# [44] = test system: IGROV1 ovarian
# [45] = test system: CAKI-1 renal
# [46] = test system: HT29 colon
# [47] = test system: KM20L2 colon
# [48] = test system: OVCAR-4 ovarian
# [49] = test system: CCRF-CEM leukemia
# [50] = test system: LOX IMVI melanoma
# [51] = test system: SF-268 CNS
# [52] = test system: NCI-H522 lung
# [53] = test system: COLO 205 colon
# [54] = test system: HOP-18 NSCLC
# [55] = test system: SN12C renal
# [56] = test system: SNB-19 CNS
# [57] = test system: HOP-92 NSCLC
# [58] = test system: DMS 114 small cell lung
# [59] = test system: SR leukemia
structure (smiles),measurement,setting,value
C[C@]12CCC(=O)C(O)=C1CC[C@@H]1C2CC[C@]2(C)Nc3c(cnn3-c3ccccc3)CC12 (some centres undefined),TGI,[1],> 100 µM
same,TGI,[2],> 100 µM
same,TGI,[3],> 100 µM
same,TGI,[4],> 100 µM
same,TGI,[5],> 100 µM
same,TGI,[6],> 100 µM
same,TGI,[7],> 100 µM
same,TGI,[8],62.6 µM
same,TGI,[9],> 100 µM
same,TGI,[10],> 100 µM
same,TGI,[11],> 100 µM
same,TGI,[12],> 100 µM
same,TGI,[13],> 100 µM
same,TGI,[14],> 100 µM
same,TGI,[15],> 100 µM
same,TGI,[16],> 100 µM
same,TGI,[17],> 100 µM
same,TGI,[18],> 100 µM
same,TGI,[19],> 100 µM
same,TGI,[20],> 100 µM
same,TGI,[21],> 100 µM
same,TGI,[22],97.5 µM
same,TGI,[23],> 100 µM
same,TGI,[24],> 100 µM
same,TGI,[25],> 100 µM
same,TGI,[26],> 100 µM
same,TGI,[27],> 100 µM
same,TGI,[28],> 100 µM
same,TGI,[29],> 100 µM
same,TGI,[30],> 100 µM
same,TGI,[31],> 100 µM
same,TGI,[32],> 100 µM
same,TGI,[33],> 100 µM
same,TGI,[34],> 100 µM
same,TGI,[35],> 100 µM
same,TGI,[36],> 100 µM
same,TGI,[37],> 100 µM
same,TGI,[38],> 100 µM
same,TGI,[39],> 100 µM
same,TGI,[40],> 100 µM
same,TGI,[41],> 100 µM
same,TGI,[42],> 100 µM
same,TGI,[43],> 100 µM
same,TGI,[44],> 100 µM
same,TGI,[45],> 100 µM
same,TGI,[46],> 100 µM
same,TGI,[47],> 100 µM
same,TGI,[48],> 100 µM
same,TGI,[49],> 100 µM
O=C(O)CNS(=O)(=O)c1ccc(NC(=O)CI)cc1,TGI,[1],66.8 µM
same,TGI,[2],38.8 µM
same,TGI,[3],> 100 µM
same,TGI,[4],> 100 µM
same,TGI,[5],41.5 µM
same,TGI,[6],62 µM
same,TGI,[7],32.5 µM
same,TGI,[8],37.5 µM
same,TGI,[50],37.6 µM
same,TGI,[9],35 µM
same,TGI,[10],63 µM
same,TGI,[11],> 100 µM
same,TGI,[14],> 100 µM
same,TGI,[15],31.1 µM
same,TGI,[16],20.2 µM
same,TGI,[51],44.3 µM
same,TGI,[17],72.4 µM
same,TGI,[52],4.4 µM
same,TGI,[53],96.8 µM
same,TGI,[18],39.6 µM
same,TGI,[19],81.6 µM
same,TGI,[20],39.5 µM
same,TGI,[54],> 100 µM
same,TGI,[21],32.2 µM
same,TGI,[22],38.6 µM
same,TGI,[23],68.5 µM
same,TGI,[24],39.8 µM
same,TGI,[25],> 100 µM
same,TGI,[26],> 100 µM
same,TGI,[27],30 µM
same,TGI,[28],72.8 µM
same,TGI,[29],62.1 µM
same,TGI,[30],29.5 µM
same,TGI,[31],73.6 µM
same,TGI,[32],28.6 µM
same,TGI,[55],> 100 µM
same,TGI,[33],34.5 µM
same,TGI,[34],39.6 µM
same,TGI,[35],44.3 µM
same,TGI,[36],> 100 µM
same,TGI,[37],48.6 µM
same,TGI,[56],> 100 µM
same,TGI,[38],64 µM
same,TGI,[39],68.5 µM
same,TGI,[41],61.1 µM
same,TGI,[42],> 100 µM
same,TGI,[43],60.7 µM
same,TGI,[57],36.4 µM
same,TGI,[44],> 100 µM
same,TGI,[45],> 100 µM
same,TGI,[46],54.4 µM
same,TGI,[47],54.5 µM
same,TGI,[48],41.4 µM
same,TGI,[49],5.85 µM
CCOC(=O)/C(=C\c1cccs1)P(=O)(OCC)OCC,TGI,[1],32.8 µM
same,TGI,[2],> 100 µM
same,TGI,[3],43.3 µM
same,TGI,[4],45 µM
same,TGI,[5],32.4 µM
same,TGI,[6],41.8 µM
same,TGI,[7],> 100 µM
same,TGI,[8],73.3 µM
same,TGI,[50],37.5 µM
same,TGI,[9],41.9 µM
same,TGI,[10],31.6 µM
same,TGI,[11],> 100 µM
same,TGI,[12],> 100 µM
same,TGI,[13],33.7 µM
same,TGI,[15],29.4 µM
same,TGI,[16],41.4 µM
same,TGI,[58],51.7 µM
same,TGI,[51],60.4 µM
same,TGI,[17],32.7 µM
same,TGI,[52],28.4 µM
same,TGI,[53],30.4 µM
same,TGI,[18],36.6 µM
same,TGI,[19],60.3 µM
same,TGI,[20],36.1 µM
same,TGI,[54],> 100 µM
same,TGI,[21],> 100 µM
same,TGI,[22],77.1 µM
same,TGI,[23],> 100 µM
same,TGI,[24],35.2 µM
same,TGI,[25],61 µM
same,TGI,[26],32.3 µM
same,TGI,[27],45.4 µM
same,TGI,[28],> 100 µM
same,TGI,[29],> 100 µM
same,TGI,[31],38.1 µM
same,TGI,[32],47.2 µM
same,TGI,[55],45.9 µM
same,TGI,[33],> 100 µM
same,TGI,[34],52.6 µM
same,TGI,[35],33.2 µM
same,TGI,[36],33.1 µM
same,TGI,[37],77.2 µM
same,TGI,[56],> 100 µM
same,TGI,[38],46.9 µM
same,TGI,[39],31.4 µM
same,TGI,[40],> 100 µM
same,TGI,[41],45.8 µM
same,TGI,[42],50.8 µM
same,TGI,[43],60.6 µM
same,TGI,[57],84.5 µM
same,TGI,[45],35.4 µM
same,TGI,[46],36.3 µM
same,TGI,[59],> 100 µM
same,TGI,[47],49.7 µM
same,TGI,[48],37.5 µM
same,TGI,[49],> 100 µM
CCCCCCCCCCCCCCCCOCC(CP(=O)([O-])OCC[n+]1ccccc1)OC (centres undefined),TGI,[1],24.5 µM
same,TGI,[2],5.63 µM
same,TGI,[3],15.5 µM
same,TGI,[4],25.2 µM
same,TGI,[6],27.1 µM
same,TGI,[7],28.9 µM
same,TGI,[8],5.19 µM
same,TGI,[10],27.7 µM
same,TGI,[11],8.09 µM
same,TGI,[12],25.2 µM
same,TGI,[13],22.1 µM
same,TGI,[14],25.5 µM
same,TGI,[16],23.5 µM
same,TGI,[58],26.5 µM
same,TGI,[51],24.9 µM
same,TGI,[17],32.2 µM
same,TGI,[52],39.5 µM
same,TGI,[53],20.5 µM
same,TGI,[18],31.6 µM
same,TGI,[19],34.7 µM
same,TGI,[20],21.2 µM
same,TGI,[21],22.3 µM
same,TGI,[22],11.8 µM
same,TGI,[23],15.4 µM
same,TGI,[24],14.8 µM
same,TGI,[25],28.8 µM
same,TGI,[27],28.4 µM
same,TGI,[28],32.7 µM
same,TGI,[29],32.8 µM
same,TGI,[30],24.7 µM
same,TGI,[31],31.9 µM
same,TGI,[32],28.7 µM
same,TGI,[55],24.9 µM
same,TGI,[33],18.9 µM
same,TGI,[34],32.8 µM
same,TGI,[35],17.9 µM
same,TGI,[36],7.4 µM
same,TGI,[37],30 µM
same,TGI,[56],21.6 µM
same,TGI,[39],5.62 µM
same,TGI,[40],31.1 µM
same,TGI,[42],24.1 µM
same,TGI,[43],11.1 µM
same,TGI,[57],5.97 µM
same,TGI,[44],17.6 µM
same,TGI,[45],22.2 µM
same,TGI,[46],15.9 µM
same,TGI,[59],15.3 µM
same,TGI,[48],24.1 µM
same,TGI,[49],25.6 µM

# — PubChem BioAssay (NCI)
